pIC50: −log10 of the molar value.
What was measured:
DB = test: In vitro anti-proliferation assay (ATPlite) in p53 mutant cell line DB; type: cell-based; conditions: Mutation R248Q, about 72 hours incubation
Experimental: (§1) Cell antiproliferation was assayed by PerkinElmer ATPlite™ Luminescence Assay System. Briefly, the various test cancer cell lines were plated at a density of about 1×10^4 cells per well in Costar 96-well plates, and were incubated with different concentrations of compounds for about 72 hours in medium supplemented with 5% FBS or 10% normal human serum(NHS). One lyophilized substrate solution vial was then reconstituted by adding 5 mL of substrate buffer solution, and was agitated gently until the solution was homogeneous. About 50 μL of mammalian cell lysis solution was added to 100 μL of cell suspension per well of a microplate, and the plate was shaken for about five minutes in an orbital shaker at ˜700 rpm. This procedure was used to lyse the cells and to stabilize the ATP. Next, 50 μL substrate solution was added to the wells and microplate was shaken for five minutes in an orbital shaker at ˜700 rpm. Finally, the luminescence was measured by a PerkinElmer TopCount® Microplate Scintillation Counter. Such assays, carried out with a range of doses of test compounds, allowed the determination of the cellular anti-antiproliferative IC50 of the compounds of the present invention. The following table lists the IC50 values of certain compounds of the invention.
(§2) The following table lists the IC50 values of another in vitro anti-proliferation assay in different p53 mutant cell lines.

CEM(R248Q) = test: In vitro anti-proliferation assay (ATPlite) in p53 mutant cell line CEM(R248Q); type: cell-based; conditions: Mutation R175H, about 72 hours incubation
Experimental: as §1, §2

KASUMI-1 = test: In vitro anti-proliferation assay (ATPlite) in p53 mutant cell line KASUMI-1; type: cell-based; conditions: Cell line KASUMI-1, Mutation R248Q, about 72 hours incubation
Experimental: as §1, §2

SUP-T1 = test: In vitro anti-proliferation assay (ATPlite) in p53 mutant cell line SUP-T1; type: cell-based; conditions: Cell line SUP-T1, Mutation R273H, about 72 hours incubation
Experimental: as §1, §2

RS4;11-G101V cell line = test: In vitro anti-proliferation assay (ATPlite) in RS4;11 with G101V mutation; type: cell-based; conditions: about 72 hours incubation
Experimental: as §1
The following table lists the IC50 values of the in vitro anti-proliferation assay in RS4;11-G101V cell line.

Mice PK study = type: in vivo; conditions: CD-1 mouse
Experimental: The pharmacokinetics of compounds were evaluated in CD-1 mouse via Intravenous and Oral Administration. The IV dose was administered as a slow bolus in the Jugular vein, and oral doses were administered by gavage. The formulation for IV dosing was 5% DMSO in 20% HPBCD in water, and the PO formulation was 2.5% DMSO, 10% EtOH, 20% Cremphor EL, 67.5% D5W. The PK time point for the IV arm was 5, 15, 30 min, 1, 2, 4, 6, 8, 12, 24 hours post dose, and for PO arm was 15, 30 min, 1, 2, 4, 6, 8, 12, 24 hours post dose. Approximately 0.03 mL blood was collected at each time point. Blood of each sample was transferred into plastic micro centrifuge tubes containing EDTA-K2 and collect plasma within 15 min by centrifugation at 4000 g for 5 minutes in a 4° C. centrifuge. Plasma samples were stored in polypropylene tubes. The samples were stored in a freezer at −75±15° C. prior to analysis. Concentrations of compounds in the plasma samples were analyzed using a LC-MS/MS method. WinNonlin (Phoenix™, version 6.1) or other similar software was used for pharmacokinetic calculations. The following pharmacokinetic parameters were calculated, whenever possible from the plasma concentration versus time data: IV administration: Co, CL, Vd, T1/2, AUCinf, AUClast, MRT, Number of Points for Regression; PO administration: Cmax, Tmax, T1/2, AUCinf, AUClast, F %, Number of Points for Regression. The pharmacokinetic data was described using descriptive statistics such as mean, standard deviation.

Compound	pIC50 (DB; Homo sapiens)	pIC50 (CEM(R248Q))	pIC50 (KASUMI-1; Homo sapiens)	pIC50 (SUP-T1; Homo sapiens)	pIC50 (DB)	pIC50 (KASUMI-1)	pIC50 (RS4;11-G101V cell line)	pIC50 (SUP-T1)	Bioavailabilty (Mice PK study; Oral, 100 mpk)	AUClas (Mice PK study; Oral, 100 mpk, plasma)	bioavailability (in words) (Mice PK study; oral)
COC[C@@]1(CO)C(=O)C2CCN1CC2 [ARP-246-S, (S)-2-(hydroxymethyl)-2-(methoxymethyl)quinuclidin-3-one, reference compound]	5.52	6.31	6.00	5.32							
COC[C@@]1(CO)C(=O)[C@@H]2CC[N@@]1[C@@H](C)C2 [Example 18, (1S,2S,4R,6S)-2-(hydroxymethyl)-2-(methoxymethyl)-6-methylquinuclidin-3-one]		6.16			5.54	5.70	5.74	5.59			
COCC1(CO)C(=O)C2CCN1CC2 (centres unmarked) [APR-246, reference compound]							5.75				
COC[C@@]1(CO)C(=O)[C@H]2CC[N@]1[C@H](C)C2 [Example 28, (1R,2S,4S,6R)-2-(hydroxymethyl)-2-(methoxymethyl)-6-methylquinuclidin-3-one]		5.35			4.74	5.12		4.90			
COC[C@]1(CO)C(=O)[C@H]2CC[N@]1[C@H](C)C2 [Example 17, (1R,2R,4S,6R)-2-(hydroxymethyl)-2-(methoxymethyl)-6-methylquinuclidin-3-one]		6.25			5.43	6.00	6.14	5.68	79%	26,093 h*ng/ml	excellent bioavailable
COC[C@]1(CO)C(=O)[C@@H]2CC[N@@]1[C@@H](C)C2 [Example 27, (1S,2R,4R,6S)-2-(hydroxymethyl)-2-(methoxymethyl)-6-methylquinuclidin-3-one]		5.80			5.48	5.59		5.48			
